Measured values taken from patent US11046700B2, “Substituted imidazo[1,2-a]pyrazines, pyrazolo[1,5-c]pyrimidines, pyrazolo[1,5-a]pyridines, and purines for the treatment of schistosomiasis” (Merck Patent GmbH, priority 2017, dated 2021).

Columns and labels:
Type in all cases: cell-based
S. mansoni adult worms = experiment: In vitro assay, S. mansoni adult worms; conditions: Schistosoma mansoni; S. mansoni adult worms, in vitro; read-out: (a) Adult
[1] = test system: S. mansoni juvenile worms; experiment: In vitro assay, S. mansoni juvenile worms; conditions: Schistosoma mansoni; S. mansoni juvenile worms, in vitro; read-out: (b) Juvenile
[2] = test system: S. haemotobium adult worms; experiment: In vitro assay, S. haemotobium adult worms; conditions: read-out: (c) S. haemotobium
Procedure: (§1) The routine biological assays using adult or juvenile worms and cytotoxicity assays using MRC-5 cells have been disclosed previously in Mansour, N. R., et al. (2016). “High Throughput Screening Identifies Novel Lead Compounds with Activity against Larval, Juvenile and Schistosoma mansoni PLoS Negl Trap Dis 10(4): e0004659. Cytotoxicity assays using the HepG2 cell line were carried out as described in Molecular Diversity (2015) 19, 251-261.
(c) S. haemotobium adult worms

MRC-5 cells = experiment: Cytotoxicity against human MRC-5 cell line
Procedure: as §1
(d) Cytotoxicity against human MRC-5 cell line

HepG2 cell line = experiment: Cytotoxicity against human HepG2 cell lines

IC50 (S. mansoni adult worms): 100 nM
IC50 [1]: 86 nM
IC50 [2]: < 1560 nM
Structure (SMILES): CCc1nc2cnc(-c3cccc(C(F)(F)F)c3)cn2c1-c1ccc(O)cc1F [Example 8, 3-fluoro-4-[2-ethyl-6-[3-(trifluoromethyl)phenyl]imidazo[1,2-a]pyrazin-3-yl]phenol]
(d) Cytotox MRC-5 (MRC-5 cells): 17.3 µM
(e) Cytotox HepG2 (HepG2 cell line): 18.7 µM
